Experimental data as given in the NIST ThermoML archive (doi:10.1016/j.jct.2018.01.003).
Numbers after ± are expanded uncertainties.

Assay: activity coefficient (dimensionless); of the first substance listed, at infinite dilution; xn = mol fraction of the nth substance listed
Conditions: 101.33 kPa, Liquid, Chromatography, x1 = 0

| activity coefficient (328.15 K) | activity coefficient (338.15 K) | activity coefficient (348.15 K) | activity coefficient (358.15 K) | activity coefficient (368.15 K) | SMILES |
| --- | --- | --- | --- | --- | --- |
| 1.21 ± 0.08 | 1.22 ± 0.08 | 1.23 ± 0.08 | 1.25 ± 0.08 | 1.26 ± 0.08 | C1CCCCCC1 [cycloheptane] + CCCCCCCCCCCCCC[P+](CCCCCC)(CCCCCC)CCCCCC.N#CC(=C=[N-])C#N |
| 0.906 ± 0.057 | 0.922 ± 0.058 | 0.938 ± 0.059 | 0.958 ± 0.06 | 0.973 ± 0.061 | C1=CCCCC1 [cyclohexene] + CCCCCCCCCCCCCC[P+](CCCCCC)(CCCCCC)CCCCCC.N#CC(=C=[N-])C#N |
| 0.459 ± 0.036 | 0.481 ± 0.037 | 0.5 ± 0.038 | 0.519 ± 0.039 | 0.536 ± 0.039 | c1ccccc1 [benzene] + CCCCCCCCCCCCCC[P+](CCCCCC)(CCCCCC)CCCCCC.N#CC(=C=[N-])C#N |
| 1.39 ± 0.09 | 1.42 ± 0.09 | 1.43 ± 0.09 | 1.46 ± 0.1 | 1.48 ± 0.1 | C=CCCCC [hex-1-ene] + CCCCCCCCCCCCCC[P+](CCCCCC)(CCCCCC)CCCCCC.N#CC(=C=[N-])C#N |
| 1.14 ± 0.07 | 1.15 ± 0.07 | 1.16 ± 0.07 | 1.17 ± 0.07 | 1.18 ± 0.08 | C1CCCCC1 [cyclohexane] + CCCCCCCCCCCCCC[P+](CCCCCC)(CCCCCC)CCCCCC.N#CC(=C=[N-])C#N |
| 2.66 ± 0.18 | 2.67 ± 0.18 | 2.69 ± 0.18 | 2.7 ± 0.18 | 2.71 ± 0.18 | CCCCCCCCC [nonane] + CCCCCCCCCCCCCC[P+](CCCCCC)(CCCCCC)CCCCCC.N#CC(=C=[N-])C#N |
| 0.503 ± 0.038 | 0.507 ± 0.038 | 0.51 ± 0.038 | 0.514 ± 0.038 | 0.516 ± 0.038 | CC(C)O [propan-2-ol] + CCCCCCCCCCCCCC[P+](CCCCCC)(CCCCCC)CCCCCC.N#CC(=C=[N-])C#N |
| 1.32 ± 0.09 | 1.33 ± 0.09 | 1.35 ± 0.09 | 1.36 ± 0.09 | 1.37 ± 0.09 | C1CCCCCCC1 [cyclooctane] + CCCCCCCCCCCCCC[P+](CCCCCC)(CCCCCC)CCCCCC.N#CC(=C=[N-])C#N |
| 0.41 ± 0.034 | 0.429 ± 0.035 | 0.445 ± 0.036 | 0.461 ± 0.036 | 0.478 ± 0.037 | c1ccsc1 [thiophene] + CCCCCCCCCCCCCC[P+](CCCCCC)(CCCCCC)CCCCCC.N#CC(=C=[N-])C#N |
| 1.56 ± 0.1 | 1.6 ± 0.11 | 1.64 ± 0.11 | 1.67 ± 0.11 | 1.7 ± 0.11 | C=CCCCCC [1-heptene] + CCCCCCCCCCCCCC[P+](CCCCCC)(CCCCCC)CCCCCC.N#CC(=C=[N-])C#N |
| 0.99 ± 0.062 | 1 ± 0.06 | 1.01 ± 0.06 | 1.03 ± 0.06 | 1.04 ± 0.07 | C1CCCC1 [cyclopentane] + CCCCCCCCCCCCCC[P+](CCCCCC)(CCCCCC)CCCCCC.N#CC(=C=[N-])C#N |
| 0.76 ± 0.05 | 0.797 ± 0.052 | 0.832 ± 0.054 | 0.863 ± 0.055 | 0.893 ± 0.057 | C#CCCC [1-pentyne] + CCCCCCCCCCCCCC[P+](CCCCCC)(CCCCCC)CCCCCC.N#CC(=C=[N-])C#N |
| 1.25 ± 0.08 | 1.27 ± 0.08 | 1.3 ± 0.08 | 1.32 ± 0.09 | 1.34 ± 0.09 | C=CCCC [1-pentene] + CCCCCCCCCCCCCC[P+](CCCCCC)(CCCCCC)CCCCCC.N#CC(=C=[N-])C#N |
| 0.616 ± 0.043 | 0.641 ± 0.044 | 0.663 ± 0.045 | 0.688 ± 0.046 | 0.711 ± 0.047 | CCC(=O)OC [methyl propanoate] + CCCCCCCCCCCCCC[P+](CCCCCC)(CCCCCC)CCCCCC.N#CC(=C=[N-])C#N |
| 0.938 ± 0.059 | 0.982 ± 0.062 | 1.03 ± 0.06 | 1.07 ± 0.07 | 1.11 ± 0.07 | C#CCCCCC [1-heptyne] + CCCCCCCCCCCCCC[P+](CCCCCC)(CCCCCC)CCCCCC.N#CC(=C=[N-])C#N |
| 0.381 ± 0.033 | 0.4 ± 0.034 | 0.417 ± 0.035 | 0.436 ± 0.035 | 0.453 ± 0.036 | C1CCOC1 [tetrahydrofuran] + CCCCCCCCCCCCCC[P+](CCCCCC)(CCCCCC)CCCCCC.N#CC(=C=[N-])C#N |
| 1.3 ± 0.08 | 1.35 ± 0.09 | 1.39 ± 0.09 | 1.43 ± 0.09 | 1.47 ± 0.1 | CCCOCCC [dipropyl ether] + CCCCCCCCCCCCCC[P+](CCCCCC)(CCCCCC)CCCCCC.N#CC(=C=[N-])C#N |
| 1.81 ± 0.12 | 1.85 ± 0.12 | 1.88 ± 0.13 | 1.91 ± 0.13 | 1.94 ± 0.13 | C=CCCCCCC [oct-1-ene] + CCCCCCCCCCCCCC[P+](CCCCCC)(CCCCCC)CCCCCC.N#CC(=C=[N-])C#N |
| 1.4 ± 0.09 | 1.45 ± 0.1 | 1.48 ± 0.1 | 1.53 ± 0.1 | 1.56 ± 0.1 | CCOC(C)(C)C [2-ethoxy-2-methylpropane] + CCCCCCCCCCCCCC[P+](CCCCCC)(CCCCCC)CCCCCC.N#CC(=C=[N-])C#N |
| 1.92 ± 0.13 | 1.77 ± 0.12 | 1.65 ± 0.11 | 1.54 ± 0.1 | 1.44 ± 0.09 | O [water] + CCCCCCCCCCCCCC[P+](CCCCCC)(CCCCCC)CCCCCC.N#CC(=C=[N-])C#N |
| – | 0.668 ± 0.045 | 0.669 ± 0.045 | 0.671 ± 0.045 | 0.672 ± 0.046 | CC#N [acetonitrile] + CCCCCCCCCCCCCC[P+](CCCCCC)(CCCCCC)CCCCCC.N#CC(=C=[N-])C#N |

| SMILES | activity coefficient (328.15 K) | activity coefficient (338.15 K) | activity coefficient (348.15 K) | activity coefficient (358.15 K) | activity coefficient (368.15 K) |
| --- | --- | --- | --- | --- | --- |
| CCC[N+](=O)[O-] [1-nitropropane] + CCCCCCCCCCCCCC[P+](CCCCCC)(CCCCCC)CCCCCC.N#CC(=C=[N-])C#N | – | 0.557 ± 0.04 | 0.566 ± 0.041 | 0.577 ± 0.041 | 0.585 ± 0.041 |
| Cc1ccc(C)cc1 [1,4-dimethylbenzene] + CCCCCCCCCCCCCC[P+](CCCCCC)(CCCCCC)CCCCCC.N#CC(=C=[N-])C#N | 0.71 ± 0.047 | 0.742 ± 0.049 | 0.773 ± 0.051 | 0.804 ± 0.052 | 0.83 ± 0.053 |
| c1ccncc1 [pyridine] + CCCCCCCCCCCCCC[P+](CCCCCC)(CCCCCC)CCCCCC.N#CC(=C=[N-])C#N | – | 0.401 ± 0.034 | 0.413 ± 0.034 | 0.425 ± 0.035 | 0.438 ± 0.035 |
| Cc1ccccc1C [1,2-dimethylbenzene] + CCCCCCCCCCCCCC[P+](CCCCCC)(CCCCCC)CCCCCC.N#CC(=C=[N-])C#N | 0.646 ± 0.044 | 0.677 ± 0.046 | 0.706 ± 0.047 | 0.734 ± 0.049 | 0.76 ± 0.05 |
| CC(C)=O [acetone] + CCCCCCCCCCCCCC[P+](CCCCCC)(CCCCCC)CCCCCC.N#CC(=C=[N-])C#N | 0.454 ± 0.036 | 0.466 ± 0.036 | 0.477 ± 0.037 | 0.491 ± 0.037 | 0.503 ± 0.038 |
